Read-outs that look alike come from different tables or passages of the source.
Tests used:
human naive CD4T cells [1] = assay type: cell-based; settings: for IFNγ+IL-4− cells (%) / ratio of IFNγ-producing cells (in words): Th1 differentiation inducing conditions; for IFNγ+IL-4− cells (%): crude human CD4T cells; for ratio of IFNγ-producing cells (in words): summary of Tables 4 and 5
human naive CD4T cells [2] = assay: Human Th2 differentiation induction culture with intracellular IFNγ/IL-4 staining and flow cytometry; assay type: cell-based; settings: for ratio of IFNγ-producing cells (in words) / ratio of IL-4-producing cells (in words) / IFNγ+IL-4− cells (%) / IFNγ−IL-4+ cells (%): Th2 differentiation inducing conditions; for IFNγ+IL-4− cells (%) / IFNγ−IL-4+ cells (%): crude human CD4T cells; for IFNγ+IL-4− cells (%): control 18.1; for IFNγ−IL-4+ cells (%): control 19.4
Description: Separation of human naive CD4T cells was performed using an automated magnetic cell sorter (autoMACS Miltenyi Biotec GmbH) by the method described below. Whole blood was drawn by venous paracentesis from six healthy donor volunteers at 24 to 50 years of age. 50 ml of human peripheral blood was diluted two fold with 50 ml of a D-PBS solution (Sigma-Aldrich Inc). Next, 25 ml of the above-described diluted peripheral blood was gradually overlain in four centrifugal tubes containing 12.5 ml of Ficoll-Paque Plus (Amersham Biosciences), and the tubes were centrifuged using a centrifuge at room temperature and 950 G for 30 minutes. After centrifugation, lymphocytes present in the intermediate layer between the Ficoll-Paque and the supernatant were recovered, and suspended in a D-PBS solution containing 3% fetal calf serum (FCS: JRH Biosiences) and 2 mM EDTA (Dojindo Inc) (hereinafter, referred to as MACS buffer); the suspension was centrifuged using a centrifuge at 4° C. and 500 G for 5 minutes to sediment the lymphocytes. The resulting lymphocyte pellet was again suspended in MACS buffer; the suspension was centrifuged at 500 G for 5 minutes to sediment the lymphocytes, and twice washed to yield a lymphocyte pellet. This cell pellet was again suspended in the MACS buffer to obtain a cell density of 1×10^8 cells/ml. To 1×10^7 lymphocytes, 2 μL of an FITC-labeled anti-human CD8 antibody (BD BioScience Pharmingen) and 2 μL of an FITC-labeled anti-human CD45RO antibody (BD BioScience Pharmingen) were added, and they were reacted on ice for 30 minutes to thereby bind each antibody. The MACS buffer was added to the reaction mixture, and the mixture was centrifuged and twice washed at 4° C. Next, 10 μL of anti-FITC microbeads (Miltenyi Biotec GmbH) was added to 1×10^7 lymphocytes coupled with each antibody, and they were reacted with each other on ice for 15 minutes. The MACS buffer was added to the reaction mixture, and the mixture was centrifuged and twice washed at 4° C. The cell pellet obtained was suspended in the MACS buffer to obtain a cell density of 5×10^7/ml, and the suspension was passed through a nylon mesh (Abe Kagaku), after which a CD8- and CD45RO-double-negative fraction was recovered using an automated magnetic cell sorter (AutoMACS Miltenyi Biotec GmbH) to thereby separate human naive CD4T cells, which were supplied for the following experiments.
Under Th2 differentiation conditions, the cells were stimulated on a plate having the anti-CD3 antibody immobilized thereon for 2 days in a differentiation induction medium containing 50 U/ml (final concentration) IL-2 (Immunace, Shionogi & Co., Ltd.), 1 ng/ml (final concentration) IL-4, and 5 μg/ml (final concentration) anti-IFNγ antibody (Pharmingen, and the cells were transferred to a plate without immobilized anti-CD3 antibody, and cultured for 5 days. Furthermore, in the case of Th2 cell differentiation, following the 2 days, 5 days of differentiation induction was performed in two consecutive cycles.
Unless otherwise specified, the final concentrations of CW, LAM/LM, PIM2 and PIM6 were adjusted to 100 μg/ml.
Cells undergoing Th1 differentiation induction (Th1-induced cells) and cells undergoing Th2 differentiation induction (Th2-induced cells) were cultured and stimulated in the presence of Monensin (Sigma) in a medium supplemented with PMA (Phorbol-12-Myristate-13-Acetate, Sigma-Aldrich) and Ionomycin (Calbiochem) for 4 hours. After stimulation, intracellular staining was performed by the method described below, the cells were analyzed using a cell analyzer (FACScalibur), and the degree of Th1 or Th2 differentiation induction was evaluated. […]

[3] = 10 μg/ml, Table 4 test, vehicle 51.2
[4] = 30 μg/ml, Table 5 test, vehicle 60.6
[5] = 100 μg/ml, Table 4 test, vehicle 51.2
[6] = 100 μg/ml, Table 5 test, vehicle 60.6

Substance	IFNγ+IL-4− cells (%) (human naive CD4T cells [1]; [3])	IFNγ+IL-4− cells (%) (human naive CD4T cells [1]; [4])	IFNγ+IL-4− cells (%) (human naive CD4T cells [1]; [5])	IFNγ+IL-4− cells (%) (human naive CD4T cells [1]; [6])	ratio of IFNγ-producing cells (in words) (human naive CD4T cells [1])	ratio of IFNγ-producing cells (in words) (human naive CD4T cells [2]; FIG. 13 and Table 6)	ratio of IL-4-producing cells (in words) (human naive CD4T cells [2]; FIG. 13 and Table 6)	IFNγ+IL-4− cells (%) (human naive CD4T cells [2]; 3 μg/ml)	IFNγ−IL-4+ cells (%) (human naive CD4T cells [2]; 3 μg/ml)	IFNγ+IL-4− cells (%) (human naive CD4T cells [2]; 30 μg/ml)	IFNγ−IL-4+ cells (%) (human naive CD4T cells [2]; 30 μg/ml)	number of IFNγ-producing cells (in words) (human naive CD4T cells [1]; Th1 differentiation conditions, T cells from six healthy human volunteers, 100 μg/ml, FIGS. 8 and 9)	potential to induce Th1 differentiation (human naive CD4T cells [1]; Th1 differentiation induction, 100 μg/ml, FIG. 7B)	number of IL-4-producing cells (in words) (human naive CD4T cells [2]; Th2 differentiation conditions, T cells from six healthy human volunteers, 100 μg/ml, FIGS. 8 and 9)	ratio of IFNγ-producing cells (in words) (human naive CD4T cells [2]; 100 μg/ml, FIG. 7B)	ratio of IL-4-producing cells (in words) (human naive CD4T cells [2]; 100 μg/ml, FIG. 7B)
lipomannan [LM]	56.7	70.5	67.9	69.1	significantly increased	dose-dependently increased	dose-dependently suppressed	29.5	14.3	38.4	8.8					
lipoarabinomannan [LAM]	55.9	63.1	55.4	67.6	significantly increased	dose-dependently increased	dose-dependently suppressed	26.9	17.2	34.8	11.9					
cardiolipin [reference compound]												did not increase	did not exhibit the potential to induce Th1 differentiation	increased	did not increase	increased

From US7928088B2, “Th1 cell differentiation accelerator” (priority 2006, dated 2011)
